Numbered stars: 1 amine (or outer) side, 2 acyl side, 3 side chain; on linkers, the order of the positions; unused ones are H or OH. Bridge positions count the residues as written; N and C are the ends. Square brackets hold non-standard residues; d marks the D form. Peptide text beside a SMILES is read from it. * marks the point of attachment. hPhe(3,5-F2-4-CF3) = N[C@@H](CCc1cc(F)c(C(F)(F)F)c(F)c1)C(=O)O; hPhe(3-Cl-4-CF3) = N[C@@H](CCc1ccc(C(F)(F)F)c(Cl)c1)C(=O)O; hPhe(3-F,4-CF3) = N[C@@H](CCc1ccc(C(F)(F)F)c(F)c1)C(=O)O; NEtPhe(4-CF3) = CCN[C@@H](Cc1ccc(C(F)(F)F)cc1)C(=O)O; NEtAsp = CCN([C@@H](CC(=O)[*:3])C(=O)[*:2])[*:1]; 3Oxa8azabicyclo(3.2.1)octane = C1CC2COCC1N2*; NMePhe(4-Me) = CN[C@@H](Cc1ccc(C)cc1)C(=O)O; NMePhe(4-F) = CN[C@@H](Cc1ccc(F)cc1)C(=O)O; NMedβ3hAla = C[C@H](CC(=O)[*:2])N(C)[*:1]; NMeGly(cPent) = CN[C@H](C(=O)O)C1CCCC1; Pro(4,4-F2) = O=C(O)[C@@H]1CC(F)(F)CN1; NMeGly(cBu) = CN[C@H](C(=O)O)C1CCC1; NMeCha = CN[C@@H](CC1CCCCC1)C(=O)O; NMeI = CC[C@H](C)[C@H](NC)C(=O)O; NMeD = CN[C@@H](CC(=O)O)C(=O)O; NMeL = CN[C@@H](CC(C)C)C(=O)O; NEtAla = CCN[C@@H](C)C(=O)O; NMeV = CN[C@H](C(=O)O)C(C)C; d(β3hA) = C[C@@H](N)CC(=O)O; NMeS = CN[C@@H](CO)C(=O)O; NMeA = CN[C@@H](C)C(=O)O; Piperidide = C1CCN(*)CC1; Ac5c = NC1(C(=O)O)CCCC1; Aze = O=C(O)[C@@H]1CCN1; Ac4c = NC1(C(=O)O)CCC1; Sar = CNCC(=O)O; Propyl = CCC*
target: protein-protein interaction between Kras and SOS1 (biotin-tagged human Kras loaded with GDP, His-tagged human SOS1) (Homo sapiens (Human), UniProt P01116, G12D); test: Protein-protein interaction inhibition between Kras and SOS1 (KrasG12D-SOS PPI) using AlphaScreen; type: biochemical; details: AlphaScreen; biotin-tagged human Kras loaded with GDP, His-tagged human SOS1; read-out: KRAS G12D-SOS PPI IC50;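 also: kras produced in E. coli, Ni-coupled donor beads and streptavidin acceptor beads, excitation 680 nm with emission detected at 520–620 nm via singlet oxygen transfer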

SMILES | IC50 [nM]
CC[C@H](C)[C@@H]1NC(=O)[C@H](CC(C)C)N(C)C(=O)C[C@@H](C)NC(=O)[C@H](C2CCCC2)N(C)C(=O)C2(CCCC2)NC(=O)[C@@H]2CCCN2C(=O)[C@H](CCc2ccc(C(F)(F)F)c(Cl)c2)NC(=O)CN(C)C(=O)[C@H](Cc2ccc(C)cc2)N(C)C(=O)[C@@H]2CCN2C(=O)[C@H](C)N(CC)C1=O [Compound 1023] (cyclo([Ac5c][NMeGly(cPent)][d(β3hA)][NMeL]I[NEtAla][Aze][NMePhe(4-Me)][Sar][hPhe(3-Cl-4-CF3)]P)) | 20
CCCOC[C@H]1C(=O)N(C)CC(=O)N[C@@H](CCc2ccc(C(F)(F)F)c(F)c2)C(=O)N2CCC[C@H]2C(=O)NC2(CCCC2)C(=O)N(C)[C@@H](C2CCCC2)C(=O)N(C)[C@H](C(=O)N2CCCCC2)CC(=O)N(C)[C@@H](CC(C)C)C(=O)N[C@@H]([C@@H](C)CC)C(=O)N(C)[C@@H](C)C(=O)N2CC[C@H]2C(=O)N1C [Compound 1029] ([NMeL]I[NMeA][Aze][NMeS](Propyl)[Sar][hPhe(3-F,4-CF3)]P[Ac5c][NMeGly(cPent)][NMeD]-Piperidide; lactam N-11) | 1.4
CCCOC[C@H]1C(=O)N(C)CC(=O)N[C@@H](CCc2ccc(C(F)(F)F)c(F)c2)C(=O)N2CCC[C@H]2C(=O)NC2(CCCC2)C(=O)N(C)[C@@H](C2CCCC2)C(=O)N(C)[C@H](C(=O)N2C3CCC2COC3)CC(=O)N(C)[C@@H](CC(C)C)C(=O)N[C@@H]([C@@H](C)CC)C(=O)N(C)[C@@H](C)C(=O)N2CC[C@H]2C(=O)N1C [Compound 1030] ([NMeL]I[NMeA][Aze][NMeS](Propyl)[Sar][hPhe(3-F,4-CF3)]P[Ac5c][NMeGly(cPent)][NMeD]-{3Oxa8azabicyclo(3.2.1)octane}; lactam N-11) | 1.7
CC[C@H](C)[C@@H]1NC(=O)[C@H](C2CCC2)N(C)C(=O)C[C@@H](C(=O)N2CCCCC2)N(C)C(=O)[C@H](C(C)C)N(C)C(=O)C2(CCCC2)NC(=O)[C@@H]2CCCN2C(=O)[C@H](CCc2ccc(C(F)(F)F)c(Cl)c2)NC(=O)CN(C)C(=O)[C@H](CC2CCCCC2)N(C)C(=O)[C@@H]2CCN2C(=O)[C@H](C)N(C)C1=O [Compound 1036] ([NMeGly(cBu)]I[NMeA][Aze][NMeCha][Sar][hPhe(3-Cl-4-CF3)]P[Ac5c][NMeV][NMeD]-Piperidide; lactam N-11) | 7.7
CC[C@H](C)[C@@H]1NC(=O)[C@H](CC(C)C)N(C)C(=O)C[C@@H](C(=O)N2CCCCC2)N(C)C(=O)[C@H](C(C)C)N(C)C(=O)C2(CCCC2)NC(=O)[C@@H]2CCCN2C(=O)[C@H](CCc2ccc(C(F)(F)F)c(F)c2)NC(=O)CN(C)C(=O)[C@H](CC2CCCCC2)N(C)C(=O)[C@@H]2CCN2C(=O)[C@H](C)N(C)C1=O [Compound 1040] ([NMeL]I[NMeA][Aze][NMeCha][Sar][hPhe(3-F,4-CF3)]P[Ac5c][NMeV][NMeD]-Piperidide; lactam N-11) | 14
CC[C@H](C)[C@@H]1NC(=O)[C@H](CC(C)C)N(C)C(=O)C[C@@H](C)N(C)C(=O)[C@H](C2CCCC2)N(C)C(=O)C2(CCCC2)NC(=O)[C@@H]2CCCN2C(=O)[C@H](CCc2ccc(C(F)(F)F)c(Cl)c2)NC(=O)CN(C)C(=O)[C@H](C2CCCC2)N(C)C(=O)[C@@H]2CCN2C(=O)[C@H](C)N(C)C1=O [Compound 1046] (cyclo([Ac5c][NMeGly(cPent)][NMedβ3hAla][NMeL]I[NMeA][Aze][NMeGly(cPent)][Sar][hPhe(3-Cl-4-CF3)]P)) | 4.6
CC[C@H](C)[C@@H]1NC(=O)[C@H](CC(C)C)N(C)C(=O)C[C@@H](C(=O)N2CCCCC2)N(CC)C(=O)[C@H](C2CCCC2)N(C)C(=O)C2(CCCC2)NC(=O)[C@@H]2CCCN2C(=O)[C@H](CCc2ccc(C(F)(F)F)c(Cl)c2)NC(=O)CN(C)C(=O)[C@H](C2CCC2)N(C)C(=O)[C@@H]2CCN2C(=O)[C@H](C)N(C)C1=O [Compound 1047] ([NMeL]I[NMeA][Aze][NMeGly(cBu)][Sar][hPhe(3-Cl-4-CF3)]P[Ac5c][NMeGly(cPent)][NEtAsp]-Piperidide; lactam N-11) | 6.3
CC[C@H](C)[C@@H]1NC(=O)[C@H](CC(C)C)N(C)C(=O)C[C@@H](C)N(C)C(=O)[C@H](C2CCCC2)N(C)C(=O)C2(CCC2)NC(=O)[C@@H]2CC(F)(F)CN2C(=O)[C@H](CCc2cc(F)c(C(F)(F)F)c(F)c2)NC(=O)CN(C)C(=O)[C@H](Cc2ccc(C(F)(F)F)cc2)N(CC)C(=O)[C@@H]2CCN2C(=O)[C@H](C)N(C)C1=O [Compound 1049] (cyclo([Ac4c][NMeGly(cPent)][NMedβ3hAla][NMeL]I[NMeA][Aze][NEtPhe(4-CF3)][Sar][hPhe(3,5-F2-4-CF3)][Pro(4,4-F2)])) | 3.7
CC[C@H](C)[C@@H]1NC(=O)[C@H](CC(C)C)N(C)C(=O)C[C@@H](C(=O)N2CCCCC2)N(C)C(=O)[C@H]([C@@H](C)CC)N(C)C(=O)C2(CCCC2)NC(=O)[C@@H]2CCCN2C(=O)[C@H](CCc2ccc(C(F)(F)F)c(Cl)c2)NC(=O)CN(C)C(=O)[C@H](Cc2ccc(F)cc2)N(C)C(=O)[C@@H]2CCN2C(=O)[C@H](C)N(C)C1=O [Compound 1060] ([NMeL]I[NMeA][Aze][NMePhe(4-F)][Sar][hPhe(3-Cl-4-CF3)]P[Ac5c][NMeI][NMeD]-Piperidide; lactam N-11) | 0.65

Reference: US20240148821A1, “PHARMACEUTICAL USE OF CYCLIC PEPTIDE COMPOUND” (CHUGAI SEIYAKU KABUSHIKI KAISHA, priority 2021, published 2024)
